Values joined by “and” are separate entries in the source; they are usually repeats but may differ in a detail not shown here. Equal entries are not always repeated. Where two headings read alike, the source gives them in different places. Where no end group is shown, it is not given here.
What was measured:
[1] = tested on: S. aureus NRS 384
Description: (§1) Base test media for the TK assay were phosphate-buffered saline (PBS), water, and cation-adjusted Mueller-Hinton broth (CAMHB), all adjusted to pH 7.4 with sodium hydroxide (NaOH) or hydrochloric acid (HCl) and then filter-sterilized.
(§2) Double strength (2×) Dey/Engley neutralizing broth (D/E) was used as a neutralizer for dilution and plating during determination of CFU/mL at each TK assay time point. Track plating was conducted on TSAB for Staphylococcus aureus NRS382 and on TSA without sheep's blood for all other organisms. TSA was used for spread plate enumeration of CFU/mL during a pilot study testing toxicity of D/E to bacteria and neutralization of SEQ ID NO: 1 in D/E.
(§3) Drug stocks of 5120 μg/mL in water at pH 5 were diluted in PBS pH-7.4 to 100× the final concentrations desired for each TK assay and frozen at −20° C. until use.
(§4) The TK test panel was prepared in a 96-well deep well plate, where 890 μL of each test media and 10 μL of 100× drug stocks were added to the appropriate wells. A growth control containing no drug was included, where 10 μl of PBS (pH 7.4) was added in place of drug.
(§5) A cell suspension was prepared from growth of a freshly streaked plate equivalent to the turbidity of a 0.5 McFarland standard in PBS at (pH 7.4). Deep-well test panels prepared as described above were inoculated with 100 μL of the 0.5 McFarland cell suspension, targeting a final inoculum of approximately 1 to 2×10^7 CFU/mL. During the TK assay, the 96 deep-well plate was left on the bench top at room temperature.
(§6) Aliquots of 100 μL were removed from the test panel immediately (0 minutes), and at 2.5, 5, 10, 15, and 30 minutes, and mixed with 100 μL 2×D/E to neutralize the rapid bactericidal activity of SEQ ID NO: 1. Cells were then serially diluted ten-fold in 2× Dey/Engley broth four times yielding a dilution series ranging from 2 to 2×10-4. Ten microliters from each step of the dilution series were track-plated in duplicate on TSA to enumerate viable counts (CFU/mL). Plates were then incubated at 35° C. overnight.
(§7) The resulting colonies were counted, and viable counts (CFU/mL) were determined from the average count of the duplicate plates. The limit of detection (LOD) for the assay was 100 CFU/mL. The LOD reflects the average CFU/ml if just one colony grew from the least diluted sample (DF=2) between the two track plate replicates, where 10 μL had been plated. Log-transformed viable counts (log10 CFU/mL) were then plotted vs. time.

[2] = tested on: S. epidermidis MMX 8655; conditions: by […]; 1× MIC; PBS and H2O
Description: as §1, §2, §3, §4, §5, §6, §7

[3] = tested on: E. Coli CDC 0451; conditions: 1× MIC, PBS, without sodium bicarbonate
Description: as §1, §2, §3, §4, §5, §6, §7

[4] = tested on: 5 test isolates; conditions: PBS and H2O, 1× and 0.5× MIC, all evaluated organisms
Description: as §1, §2, §3, §4, §5, §6, §7

[5] = tested on: S. aureus; assay: Broth microdilution MIC, PJI isolates (Example 1); format: cell-based, Staphylococcus aureus; conditions: RPMI; N = 3
Description: (§8) Imipenem, levofloxacin, tigecycline, linezolid, vancomycin, oxacillin, ceftazidime, colistin, and amikacin were tested as comparators. Testing was conducted in accordance with guidelines from the Clinical and Laboratory Standards Institute (CLSI; M7 and M100). Test organisms comprised reference strains from the American Type Culture Collection, the Centers for Disease Control Antibiotic Reference Bank and clinical isolates from the Micromyx repository.

[6] = tested on: Enterobacterales; assay: Broth microdilution MIC, PJI isolates (Example 1); format: cell-based; conditions: RPMI; N = 22
Description: as §8

[7] = tested on: Staphylococcus aureus SH1000; conditions: both concentrations (1 and 5 mg/mL)
Description: A bone tunnel in the tibial canal was created using a drill with a 1.2 mm or 1.6 mm tungsten carbide drill bit. The bone tunnel was then dried and treated to stimulate acute human PJI following primary arthroplasty. A Kirschner wire implant of 2 cm long with a 0.3 cm long top hook was placed in the bone tunnel and the wound was closed. Prior to closure of the superficial skin layer, 0.1 mL of 2×10^6 planktonic Staphylococcus aureus SH1000 (CFU/rabbit) in saline was injected into the joint space. A closure was performed, and a biofilm was allowed to become established over a period of 2 days.
At 2 days post infection, irrigation and debridement (I&D) was performed on the infected joint. […] Additionally, an intravenous administration of an antibiotic was administered. Bacterial burden was determined by colony forming unit (CFU) analysis.
Animals were observed up to 28 days. […] When an animal was sick or needed to be euthanized, the implant and a part of the tibia was collected post mortem and bacterial burden was determined by CFU analysis.
The following parameters and endpoints were evaluated in this study: X-ray for proper implant placement, bacterial burden by colony forming unit analysis (CFU), general clinical signs, detailed clinical signs, body weights, body weight changes, temperature, mortality, blood culture, erythrocyte sedimentation rate (ESR), and C-reactive protein levels (CRP). […]

[8] = tested on: P. aeruginosa CDC 0515 biofilm; assay: Microtiter plate biofilm studies (previous), resazurin viability
Excerpt: In those previous studies, mature biofilms were formed on polystyrene microtiter plates through growth in CAMHB, followed by exposure to SEQ ID NO: 1 and resazurin addition to measure cell viability.

In the case of RRWVRRVRRVWRRVVRVVRRWVRR [SEQ ID NO: 1], the log-kill ([1]; 0 min, 0.5 and 1× MIC in H2O, absence of sodium bicarbonate) is reported as ≥ 3 log, the log-kill ([1]; after […], 1× MIC in PBS +/- sodium bicarbonate) is reported as ~3 log and the log-kill ([1]; by […], 0.5 and 1× MIC in H2O, presence of sodium bicarbonate) is reported as ≥ 3 log. The log-kill [2] was ~3 log, the “killing (log)” value [3] was > 3 and the log killing [4] was “Greater than 1 log”. It also gave an MIC50 [5] of 0.12 µg/mL, an MIC90 [5] of 0.12 µg/mL and an MIC50 [6] of 0.5 µg/mL. For the same sequence, the MIC90 [6] was 0.5 µg/mL, the “body weight vs control group” value [7] was “no statistically significant bodyweight differences” and the “decrease in cell viability (resazurin reduction)” value ([8]; 500 μg/mL, 15 minutes) was “ca. 70%”. For the same sequence, the MIC ([8]; two previous microtiter plate biofilm studies) was 8 µg/mL and 16 µg/mL.

Reference: US20240252586A1, “ENGINEERED ANTIMICROBIAL PEPTIDES AND USAGE THEREOF” (priority 2021, published 2024)
